# T1: CD73 (Homo sapiens, UniProt P21589)
# T1 construct: endogenous in cells
# T1 sequence (P21589 27-549): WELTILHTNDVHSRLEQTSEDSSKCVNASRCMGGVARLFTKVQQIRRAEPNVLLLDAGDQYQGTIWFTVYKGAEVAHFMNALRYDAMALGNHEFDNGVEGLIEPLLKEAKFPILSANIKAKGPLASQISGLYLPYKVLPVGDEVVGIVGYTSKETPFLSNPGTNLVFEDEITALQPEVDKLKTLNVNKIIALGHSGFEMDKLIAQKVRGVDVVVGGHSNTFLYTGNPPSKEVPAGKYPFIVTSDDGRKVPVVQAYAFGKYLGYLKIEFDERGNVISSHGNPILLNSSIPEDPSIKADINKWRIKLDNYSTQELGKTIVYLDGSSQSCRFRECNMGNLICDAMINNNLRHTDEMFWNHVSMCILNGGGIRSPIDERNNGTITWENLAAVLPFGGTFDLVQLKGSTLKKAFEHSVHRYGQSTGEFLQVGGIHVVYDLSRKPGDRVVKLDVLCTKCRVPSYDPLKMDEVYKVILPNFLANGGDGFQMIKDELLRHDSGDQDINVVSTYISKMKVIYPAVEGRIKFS
# T2: CD39 (Homo sapiens, UniProt P49961)
# T2 construct: Treg purified from HD blood degraded 48.24±6.20% of ATP into AMP; endogenous in cells
# T2 sequence (P49961 1-510): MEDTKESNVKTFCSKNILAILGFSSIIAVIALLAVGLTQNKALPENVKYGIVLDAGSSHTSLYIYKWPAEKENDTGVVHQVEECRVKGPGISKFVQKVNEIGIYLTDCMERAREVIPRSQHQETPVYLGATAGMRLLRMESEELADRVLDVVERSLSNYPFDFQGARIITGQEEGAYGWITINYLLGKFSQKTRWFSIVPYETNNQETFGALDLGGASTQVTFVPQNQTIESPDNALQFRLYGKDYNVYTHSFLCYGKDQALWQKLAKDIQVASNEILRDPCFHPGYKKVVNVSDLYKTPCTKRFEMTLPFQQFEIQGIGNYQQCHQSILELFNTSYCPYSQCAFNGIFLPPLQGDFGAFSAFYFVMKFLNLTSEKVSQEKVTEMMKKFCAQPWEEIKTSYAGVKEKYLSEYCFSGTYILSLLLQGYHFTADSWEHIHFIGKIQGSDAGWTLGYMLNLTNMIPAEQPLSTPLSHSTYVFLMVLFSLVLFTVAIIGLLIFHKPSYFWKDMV
# Experiments:
# CD73 = molecular target: T1, CD73; experiment: Hydrolysis of C13N15 AMP into Ado by CD73+ Tconv (HPLC); format: cell-based
# Method: To confirm this hypothesis, we quantified, by HPLC, the capacity of Treg to degrade ATP into Ado. To prevent interference with endogenous ATP or metabolites, these experiments were performed with exogenous C13N15 stable isotope ATP. After two hours, Treg purified from HD blood degraded 48.24±6.20% of ATP into AMP without generating neither Ado nor Inosine. […] Moreover, we confirmed that CD73^+ and CD73^neg Tconv were not able to degrade C13N15 ATP.
# Using this technique, we confirmed the enzymatic functionality of CD73 on Tconv. Only CD73^+ Tconv were capable of hydrolyzing C13N15 AMP into Ado and this was reversed by addition of a specific CD73 inhibitor (AMPCP).
# CD73+ Tconv = experiment: Co-culture of Treg with CD73+ or CD73neg Tconv, with or without exogenous ATP: proliferation (CTV dilution); format: cell-based, human; conditions: Treg:Tconv ratio 1/1; round-bottomed wells; anti-CD3/anti-CD28 beads
# Source text: To analyze the biological impact of Ado generation by cooperation between CD39^+ Treg and CD73^+ Tconv, we co-cultured Treg labeled with proliferation marker CFSE in presence of CD73^+ or CD73^neg Tconv labeled with Cell Trace Violet (CTV) at a ratio 1/1 in presence or absence of exogenous ATP in round-bottomed wells with compact cell density in presence of anti-CD3/anti-CD28 beads. […] In contrast, CTV-labeled CD73^+ or CD73^neg proliferation that was not altered by the addition of Treg due to the strong activation. […] To mimic physiological conditions, Treg, CD73^+ and CD73^neg Tconv subsets were mixed together at physiological ratio (10%/20%/70%) observed in blood. ATP induced inhibition of the bulk proliferation which can be rescued by the combined addition of CD39 and CD73 inhibitors. The proliferation of each subset was analyzed by specific proliferation markers (CFSE and CTV alone or in combination).
# CD73+ or CD73neg Tconv [1] = experiment: 4 days' proliferation of purified CD73+ or CD73neg Tconv with anti-CD3/anti-CD28 beads; format: cell-based, human
# Method: Addition of recombinant ADA (rhADA, 1 μg/ml), inducing degradation of Ado into Ino restored both T cell subsets proliferation confirming the immunosuppressive impact of Ado.
# CD39 = molecular target: T2, CD39; experiment: Degradation of exogenous C13N15 ATP by purified Treg, quantified by HPLC; format: cell-based; conditions: Treg purified from HD blood, two hours
# Method: FIG. 3: Breast and ovarian tumors contain highly functional CD39+ Treg and CD73+ Tconv with Th1/17 characteristics. (A) Representative expression of CD39 and CD73 analyzed on memory CD4+ Treg and Tconv from Breast (B) and ovarian (OT) by flow cytometry. Frequency of CD39+ cells (B) and Δ CD39 MFI on these cells (C) among paired Treg and Tconv were analyzed by flow cytometry among BT and OT and statistical analysis was performed by Two-way Anova analysis. (D) Purified tumor-associated Treg were assessed for ATP (37.5 μM) degradation by HPLC measurements and compared to HD-blood Treg. In some conditions 30 min pre-incubation with ARL67156 (250 μM) was used to assess the role of CD39 functional activity. (E,F) Δ CD39 MFI of CD39+ cells among Treg (E) or Tconv (F) from paired peripheral blood and BT or OT were analyzed. Statistical analysis was performed by using Two-way Anova analysis. (G) Frequency of CD73+ cells among Tconv from BT and OT was analyzed by flow cytometry. Statistical analysis was performed by using Kruskal-Wallis test.
# To confirm this hypothesis, we quantified, by HPLC, the capacity of Treg to degrade ATP into Ado. To prevent interference with endogenous ATP or metabolites, these experiments were performed with exogenous C13N15 stable isotope ATP. After two hours, Treg purified from HD blood degraded 48.24±6.20% of ATP into AMP without generating neither Ado nor Inosine. […]
# CD73+ or CD73neg Tconv [2] = experiment: Cytokine secretion of purified Tconv subsets after 2 days of anti-CD3/anti-CD28 bead activation; format: cell-based, human; conditions: 2 days of activation; addition of Ado
# Method: Moreover, the impact of Ado and AMP on cytokine secretion capacity was analyzed on both purified Tconv subsets. To avoid a confounding effect of Ado and AMP on proliferation in this analysis we analyzed cytokine secretion after 2 days of activation with anti-CD3/anti-CD28 beads which was determined as the maximal length of activation without induction of any proliferation (CFSE dilution). First, we confirmed that CD73^+ Tconv produced more IL-2, TNF-α, IFN-γ, IL-17A, IL-22, GM-CSF and IL-3 but less IL-10, IL-13 and IL-21 than CD73^neg in this activation setting. As shown previously for the proliferation, the secretion of the cytokines produced by CD73^+ or CD73^neg Tconv was inhibited by the addition of Ado.
# MDR1 = molecular target: T3, MDR1 (Homo sapiens, UniProt P08183); experiment: MDR1 functionality: Rhodamine 123 (Rhd123) efflux by flow cytometry; format: cell-based; conditions: HD-PBMC stained with Rhd123 (1 μg/ml); Elacridar 1 μM
# T3 construct: After staining of HD-PBMC with Rhd123 we analyzed, by flow cytometry, cells endowed with Rhd123 efflux function; endogenous in cells
# Method: (B, C) MDR1 functionality was assessed on CD73^+ and CD73^neg Tconv by their capacity to exclude Rhd123 (1 μg/ml) analyzed by flow cytometry. […] Frequency of Rhd123^neg cells was analyzed among CD73^+ (black) and CD73^neg (white) Tconv (D). Statistical analysis was performed by using Wilcoxon test.
# Moreover, we took advantage of the physiological role of MDR1 in the efflux of specific fluorescent substrate like Rhodamine 123 (Rhd123). After staining of HD-PBMC with Rhd123 we analyzed, by flow cytometry, cells endowed with Rhd123 efflux function.
# in vitro = conditions: human
# Method: (§1) Memory CD4^+ Tconv purified from healthy donor PBMC were used. Purified 10^5 CD4^+ Tconv were cultured in 96-round bottomed wells in complete RPMI medium for 48 h in presence of a strong TCR stimulation (expand beads, ratio bead:cell 1:8)+IL-2 (50UI/ml) in absence (medium condition) or in presence of graded doses of Taxol (0.01; 0.1; 1 μM). Viability was analyzed by multiparametric flow cytometry on different cell subsets according to their expression of CD73 and MDR1 (CD73 MDR1, CD73^+MDR1^neg, CD73^negMDR1^+, CD73^negMDR1^neg). Survival was analyzed by multiparametric flow cytometry using Annexin-V and DAPI stainings (both from Becton Dickinson) according to CD73 and MDR1 expression. % of viable cells (Annexin V^neg DAPI^neg) was compared according to the cell subset analyzed.
# (§2) Their survival was analyzed by multiparametric flow cytometry using with Annexin-V and DAPI stainings (both from Becton Dickinson) according to CD73 and MDR1 expression. The percentage of viable cells (Annexin V^neg DAPI^neg) was compared according to the cell subset analyzed.
# [3] = test system: PBMC-purified memory CD4+ Tconv; experiment: in vitro; conditions: 48 h
# Method: as §1, §2
# [4] = test system: CD73 and TIGIT expression on CD4+ and CD8+ T cells; experiment: Blood immune-monitoring of metastatic melanoma patients during anti-PD1 treatment (multiparametric flow cytometry); format: in vivo, human
# Method: 2nd line metastatic melanoma patients treated with anti PD-1 (Nivolumab, 3 mg/kg/i.v, every 2 weeks) were subjected to blood immune-monitoring, by multiparametric flow cytometry analysis, to assess, using specific coupled mAbs against CD73 (APC) and TIGIT (PE), the modulation of expression of both ICP on CD4+ and CD8+ T cells before (inclusion, WO) and during treatment (W2, W12).
# T3 sequence (P08183 whole entry): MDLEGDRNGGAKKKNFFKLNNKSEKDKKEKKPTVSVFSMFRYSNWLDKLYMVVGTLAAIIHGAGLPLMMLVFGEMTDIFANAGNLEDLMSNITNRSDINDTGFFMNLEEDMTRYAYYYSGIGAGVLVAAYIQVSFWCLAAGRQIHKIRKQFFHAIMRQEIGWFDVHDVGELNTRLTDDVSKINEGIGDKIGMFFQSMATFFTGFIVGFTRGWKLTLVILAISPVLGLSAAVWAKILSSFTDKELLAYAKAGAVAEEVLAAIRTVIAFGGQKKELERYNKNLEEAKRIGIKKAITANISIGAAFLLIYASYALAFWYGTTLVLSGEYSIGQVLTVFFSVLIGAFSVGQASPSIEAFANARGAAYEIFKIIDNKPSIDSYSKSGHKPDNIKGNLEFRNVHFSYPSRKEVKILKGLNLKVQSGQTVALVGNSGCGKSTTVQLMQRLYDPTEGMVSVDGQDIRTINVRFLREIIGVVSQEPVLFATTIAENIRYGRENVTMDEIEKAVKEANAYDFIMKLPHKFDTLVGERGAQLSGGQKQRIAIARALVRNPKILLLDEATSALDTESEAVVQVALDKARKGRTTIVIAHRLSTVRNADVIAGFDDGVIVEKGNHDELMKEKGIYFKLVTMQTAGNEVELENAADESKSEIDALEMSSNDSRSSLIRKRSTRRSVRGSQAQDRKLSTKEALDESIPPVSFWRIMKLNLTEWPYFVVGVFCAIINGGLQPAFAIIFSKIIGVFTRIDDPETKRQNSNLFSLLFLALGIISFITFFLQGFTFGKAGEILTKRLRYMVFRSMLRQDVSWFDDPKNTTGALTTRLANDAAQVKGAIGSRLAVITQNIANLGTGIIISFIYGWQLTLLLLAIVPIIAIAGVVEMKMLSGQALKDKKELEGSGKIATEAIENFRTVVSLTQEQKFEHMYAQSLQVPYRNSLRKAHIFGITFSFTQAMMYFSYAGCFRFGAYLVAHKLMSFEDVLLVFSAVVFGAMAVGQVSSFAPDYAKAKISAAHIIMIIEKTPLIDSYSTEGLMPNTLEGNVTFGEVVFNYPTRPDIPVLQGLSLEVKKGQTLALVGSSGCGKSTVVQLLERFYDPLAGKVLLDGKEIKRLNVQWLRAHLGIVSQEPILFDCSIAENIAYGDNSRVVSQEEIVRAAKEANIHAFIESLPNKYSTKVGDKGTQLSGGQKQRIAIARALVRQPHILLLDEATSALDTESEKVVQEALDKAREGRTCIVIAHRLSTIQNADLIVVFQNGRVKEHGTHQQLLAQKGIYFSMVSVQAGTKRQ
molecule,measurement,setting,value
Nc1ncnc2c1ncn2[C@@H]1O[C@H](COP(=O)(O)CP(=O)(O)O)[C@@H](O)[C@H]1O [AMPCP],effect on hydrolysis of C13N15 AMP into Ado by CD73+ Tconv,CD73,reversed
same,effect on inhibition of CD73+ Tconv proliferation induced by Treg and ATP,CD73+ Tconv,reversed
same,effect on AMP-induced inhibition of CD73+ Tconv proliferation,CD73+ or CD73neg Tconv [1]; added with AMP (150 μM final concentration),reversion of inhibition
Nc1ncnc2c1ncn2[C@@H]1O[C@H](COP(=O)(O)O)[C@@H](O)[C@H]1O [AMP],effect on proliferation of CD73+ Tconv,"CD73+ or CD73neg Tconv [1]; metronomic addition, 150 μM final concentration, 4 days",inhibited
CCN(CC)c1ncnc2c1ncn2[C@@H]1O[C@H](COP(=O)(O)OP(=O)(O)C(Br)(Br)P(=O)(O)O)[C@@H](O)[C@H]1O [ARL67156],effect on degradation of ATP into AMP by Treg,CD39,completely inhibited
"Nc1ncnc2c1ncn2[C@@H]1O[C@H](CO)[C@@H](O)[C@H]1O [Ado, adenosine]",effect on proliferation of both subsets (CD73+ and CD73neg Tconv),"CD73+ or CD73neg Tconv [1]; metronomic addition 75 μM/day, 300 μM final concentration, 4 days",inhibited
same,effect on IL-17A secretion by Tconv CD73+ (or CD73neg),CD73+ or CD73neg Tconv [2],not altered
same,effect on IL-22 secretion,CD73+ or CD73neg Tconv [2],slightly inhibited
same,effect on secretion of the cytokines produced by CD73+ or CD73neg Tconv,CD73+ or CD73neg Tconv [2],inhibited
COc1cc2c(cc1OC)CN(CCc1ccc(NC(=O)c3cccc4c(=O)c5cccc(OC)c5[nH]c34)cc1)CC2 [Elacridar],effect on Rhd123 efflux by Tconv,MDR1,completely abrogated
CC(=O)O[C@H]1C(=O)[C@@]2(C)[C@H]([C@H](OC(=O)c3ccccc3)[C@]3(O)C[C@H](OC(=O)[C@H](O)[C@@H](NC(=O)c4ccccc4)c4ccccc4)C(C)=C1C3(C)C)[C@]1(OC(C)=O)CO[C@@H]1C[C@@H]2O [Taxol],"viability at 48 h, 1 µM",in vitro,80%
same,sensitivity to Taxol-induced apoptosis,"[3]; CD73+MDR1neg subset, high Taxol doses",sensitive to apoptosis
same,sensitivity to Taxol-induced apoptosis,[3]; CD73negMDR1neg population,highly sensitive
Nivolumab: anti PD-1 antibody given to metastatic melanoma patients,modulation of CD73 expression on CD4+ or CD8+ T cells,"[4]; 11 patients, 3 mg/kg i.v. every 2 weeks, before (W0) and during treatment (W2, W12)",No significant modulation
same,modulation of TIGIT expression,"[4]; between W0 and W2, representative dot plot",increased
"rhADA: recombinant Adenosine Deaminase, inducing degradation of Ado into Ino (protein, UniProt P00813 2-363, looked up) Adenosine deaminase: AQTPAFDKPKVELHVHLDGSIKPETILYYGRRRGIALPANTAEGLLNVIGMDKPLTLPDFLAKFDYYMPAIAGCREAIKRIAYEFVEMKAKEGVVYVEVRYSPHLLANSKVEPIPWNQAEGDLTPDEVVALVGQGLQEGERDFGVKARSILCCMRHQPNWSPKVVELCKKYQQQTVVAIDLAGDETIPGSSLLPGHVQAYQEAVKSGIHRTVHAGEVGSAEVVKEAVDILKTERLGHGYHTLEDQALYNRLRQENMHFEICPWSSYLTGAWKPDTEHAVIRLKNDQANYSLNTDDPLIFKSTLDTDYQMTKRDMGFTEEEFKRLNINAAKSSFLPEDEKRELLDLLYKAYGMPPSASAGQNL",effect on Ado-inhibited proliferation of both T cell subsets,CD73+ or CD73neg Tconv [1]; rhADA 1 μg/ml added with exogenous Ado,restored
